Source: the NIST ThermoML archive (doi:10.1016/j.jct.2018.03.031)
Values joined by “and” are separate entries in the source; they are usually repeats but may differ in a detail not shown here. Identical values can stand only once. ± gives the expanded uncertainty stated by the source.

How the values were obtained:
[1] = molar heat capacity at constant pressure; details: 101.33 kPa, Large sample (1 g) DSC
[2] = DSC
[3] = Molar enthalpy of transition or fusion; details: DSC

| Structure (SMILES) | molar heat capacity at constant pressure ([1]; 283.15 K, Liquid) [J/K/mol] | molar heat capacity at constant pressure ([1]; 288.15 K, Liquid) [J/K/mol] | molar heat capacity at constant pressure ([1]; 293.15 K, Liquid) [J/K/mol] | molar heat capacity at constant pressure ([1]; 298.15 K, Liquid) [J/K/mol] | molar heat capacity at constant pressure ([1]; 303.15 K, Liquid) [J/K/mol] | molar heat capacity at constant pressure ([1]; 308.15 K, Liquid) [J/K/mol] | molar heat capacity at constant pressure ([1]; 313.15 K, Liquid) [J/K/mol] | molar heat capacity at constant pressure ([1]; 318.15 K, Liquid) [J/K/mol] | molar heat capacity at constant pressure ([1]; 323.15 K, Liquid) [J/K/mol] | molar heat capacity at constant pressure ([1]; 328.15 K, Liquid) [J/K/mol] | molar heat capacity at constant pressure ([1]; 333.15 K, Liquid) [J/K/mol] | molar heat capacity at constant pressure ([1]; 338.15 K, Liquid) [J/K/mol] | other results |
| --- | --- | --- | --- | --- | --- | --- | --- | --- | --- | --- | --- | --- | --- |
| CCCCCCOS(=O)(=O)[O-].CC[n+]1ccn(C)c1 [3-ethyl-1-methyl-1H-imidazolium hexyl sulfate] | 505.2 ± 12 | 508.3 ± 12 | 509.1 ± 12 | 513.9 ± 13 | 517.4 ± 13 | 520.2 ± 13 | 523.1 ± 13 | 526 ± 13 | 528.4 ± 13 | 531.5 ± 13 | 534 ± 13 | 537.6 ± 13 | – |
| CCCC[N+]1(C)CCCC1.O=S(=O)([O-])C(F)(F)F [1-butyl-1-methylpyrrolidinium trifluoromethanesulfonate] | 436.5 ± 11 | 438.3 ± 11 | 439.9 ± 11 | 442.7 ± 11 | 445.3 ± 11 | 447.8 ± 11 | 452.2 ± 11 | 455.3 ± 11 | 457.2 ± 11 | 460 ± 11 | 461.9 ± 11 | 464.6 ± 11 | – |
| CCCC[P+](CCCC)(CCCC)CCCC.FC(F)(F)C(F)(F)[P-](F)(F)(F)(C(F)(F)C(F)(F)F)C(F)(F)C(F)(F)F | – | – | – | – | – | – | – | – | – | – | – | – | molar heat capacity at constant pressure ([1]; 283.15 K, Crystal 2): 971 ± 24 J/K/mol; molar heat capacity at constant pressure ([1]; 288.15 K, Crystal 2): 981.2 ± 24 J/K/mol; molar heat capacity at constant pressure ([1]; 293.15 K, Crystal 2): 990.3 ± 24 J/K/mol; molar heat capacity at constant pressure ([1]; 298.15 K, Crystal 2): 1003.2 ± 25 J/K/mol; molar heat capacity at constant pressure ([1]; 303.15 K, Crystal 2): 1018.4 ± 25 J/K/mol; molar heat capacity at constant pressure ([1]; 323.15 K, Crystal 1): 1029.4 ± 25 J/K/mol; molar heat capacity at constant pressure ([1]; 328.15 K, Crystal 1): 1049.8 ± 26 J/K/mol; Triple point temperature ([2]; Crystal 1): 342.15 ± 1 K; Triple point temperature ([2]; Crystal 2): 313.75 ± 0.8 K and 313.15 ± 1 K; Molar enthalpy of transition or fusion ([3]; Crystal 1): 1.86 ± 0.0717 kcal/mol; Molar enthalpy of transition or fusion ([3]; Crystal 2): 2.13 kcal/mol and 2.08 kcal/mol |
| CCCCn1cc[n+](C)c1C.O=S(=O)([O-])C(F)(F)F [1-butyl-2,3-dimethylimidazolium trifluoromethanesulfonate] | – | – | – | – | – | – | – | – | 472.2 ± 12 | 474.3 ± 12 | 475.2 ± 12 | 478.7 ± 12 | molar heat capacity at constant pressure ([1]; 283.15 K, Crystal 2): 381.1 ± 9.4 J/K/mol; molar heat capacity at constant pressure ([1]; 288.15 K, Crystal 2): 394.6 ± 9.7 J/K/mol; molar heat capacity at constant pressure ([1]; 293.15 K, Crystal 2): 407.1 ± 10 J/K/mol; Triple point temperature ([2]; Crystal 1): 315.25 ± 0.8 K and 316.15 ± 1 K; Triple point temperature ([2]; Crystal 2): 307.45 ± 0.8 K and 306.15 ± 1 K; Molar enthalpy of transition or fusion ([3]; Crystal 1): 3.59 kcal/mol; Molar enthalpy of transition or fusion ([3]; Crystal 2): 1.29 kcal/mol and 1.7 kcal/mol |
| CCn1cc[n+](C)c1.O=S(=O)([N-]S(=O)(=O)C(F)(F)F)C(F)(F)F | 521 ± 13 | 522.6 ± 13 | 524.2 ± 13 | 526.4 ± 13 | 528.5 ± 13 | 530.7 ± 13 | 532.5 ± 13 | 534.8 ± 13 | 536.3 ± 13 | 538.9 ± 13 | 540.2 ± 13 | 541.7 ± 13 | – |
| COCC[N+]1(C)CCCC1.O=S(=O)([N-]S(=O)(=O)C(F)(F)F)C(F)(F)F | 575.3 ± 14 | 578.9 ± 14 | 580.3 ± 14 | 582.3 ± 14 | 584.7 ± 14 | 586.5 ± 14 | 588.9 ± 14 | 591.3 ± 14 | 593.2 ± 14 | 596.3 ± 15 | 597.5 ± 15 | 602.6 ± 15 | – |
| CCCCO [butan-1-ol] | 168 ± 4.1 | 171 ± 4.2 | 174.1 ± 4.3 | 177.9 ± 4.4 | 181.1 ± 4.4 | 184.5 ± 4.5 | 187.8 ± 4.6 | 191.4 ± 4.7 | 196 ± 4.8 | 200.1 ± 4.9 | 204.1 ± 5 | 208.4 ± 5.1 | – |
